Columns and labels:
[1] = test system: Mus musculus; assay: Toxicity in Mus musculus albino (mouse) assessed as effect on gross behavior at 75 umole/kg, ip; type: organism-based; conditions: in vivo
[2] = test system: Mus musculus; assay: Antidepressant activity in Mus musculus albino (mouse) assessed as reversal of reserpine-induced ptosis at 75 umole/kg, ip after 3 hr by chi-square test relative to control; type: functional
[3] = test system: Mus musculus; assay: Anorexigenic activity in Mus musculus albino (mouse) assessed as reduction of milk intake at 75 umole/kg, ip relative to control; type: functional; set-up: scale not given: the % may be the effect or the level left

| Compound | Activity [1] | Activity [2] | Activity [3] |
| --- | --- | --- | --- |
| Cc1ccc(NC(=S)N(C)CCC(Oc2ccc(C(F)(F)F)cc2)c2ccccc2)cc1 (configuration not stated) | Non-toxic | 80% | – |
| CN(CCC(Oc1ccc(C(F)(F)F)cc1)c1ccccc1)C(=O)NCCc1ccccc1 (configuration not stated) | Non-toxic | 100% | – |
| CNCCC(Oc1ccc(C(F)(F)F)cc1)c1ccccc1 (configuration not stated) [FLUOXETINE] | – | 0% | 78.49% |
| CN(CCC(Oc1ccc(C(F)(F)F)cc1)c1ccccc1)C(=S)NC(=O)c1ccccc1 (configuration not stated) | Non-toxic | 100% | – |
| COc1ccc(NC(=S)N(C)CCC(Oc2ccc(C(F)(F)F)cc2)c2ccccc2)cc1 (configuration not stated) | Non-toxic | 100% | – |
| COC(=O)[C@H]1[C@H]2C[C@@H]3c4[nH]c5cc(OC)ccc5c4CCN3C[C@H]2C[C@@H](OC(=O)c2cc(OC)c(OC)c(OC)c2)[C@@H]1OC [RESERPINE] | – | 100% | – |
| CN(CCC(Oc1ccc(C(F)(F)F)cc1)c1ccccc1)C(=S)NC1CCCCC1 (configuration not stated) | Non-toxic | 100% | – |
| CN(C[C@@H]1CCc2ccccc2[C@@H]1Oc1ccc(C(F)(F)F)cc1)C(=O)NC1CCCCC1 | Non-toxic | 100% | – |
| CC(C)NC(=S)N(C)CCC(Oc1ccc(C(F)(F)F)cc1)c1ccccc1 (configuration not stated) | Non-toxic | 100% | – |
| CN(CCC(Oc1ccc(C(F)(F)F)cc1)c1ccccc1)C(=S)NCc1ccccc1 (configuration not stated) | Non-toxic | 100% | – |
| CN(CCC(Oc1ccc(C(F)(F)F)cc1)c1ccccc1)C(=S)Nc1ccccc1 (configuration not stated) | Non-toxic | 100% | – |
| CN(CCC(Oc1ccc(C(F)(F)F)cc1)c1ccccc1)C(=S)NC(C)(C)C (configuration not stated) | Non-toxic | 100% | – |
| CN(C[C@@H]1CCc2ccccc2[C@@H]1Oc1ccc(C(F)(F)F)cc1)C(=O)NCCc1ccccc1 | Non-toxic | 100% | – |
| CN(C[C@@H]1CCc2ccccc2[C@@H]1Oc1ccc(C(F)(F)F)cc1)C(=S)NCCc1ccccc1 | Non-toxic | 100% | – |
| CC1CCC(NC(=S)N(C)CCC(Oc2ccc(C(F)(F)F)cc2)c2ccccc2)CC1 (configuration not stated) | Non-toxic | 60% | – |
| CN(CCC(Oc1ccc(C(F)(F)F)cc1)c1ccccc1)C(=O)NC1CCCCC1 (configuration not stated) | Non-toxic | 80% | – |
| CN(CCC(Oc1ccc(C(F)(F)F)cc1)c1ccccc1)C(=S)NCCc1ccccc1 (configuration not stated) | Non-toxic | 40% | – |
| COc1cc(NC(=S)N(C)CCC(Oc2ccc(C(F)(F)F)cc2)c2ccccc2)cc(OC)c1OC (configuration not stated) | Non-toxic | 100% | – |
| CC1CCC(NC(=O)N(C)C[C@@H]2CCc3ccccc3[C@@H]2Oc2ccc(C(F)(F)F)cc2)CC1 (some centres not stated) | Non-toxic | 80% | – |

Source: ChEMBL document CHEMBL3046231 (Med Chem Res, 2008)
